From patent EP1566447A1, “Glimepiride- and insulin-induced glycosylphosphatidylinositol-specific phospholipase C regulation” (priority 2004, dated 2005)
“Also recorded” adds a separate entry of the source.

Assays:
[1] = tested on: Isolated rat adipocytes; test: localization of lipolytically cleaved and uncleaved GPI-proteins at hcDIGs, IcDIGs and total plasma membranes; format: cell-based; conditions: GPI-2350 50 µM, insulin 10 nM, glimepiride 20 µM
[2] = tested on: rat adipocytes; test: isoproterenol-induced lipolysis (glycerol release); format: cell-based
Method: (§1) Electroporation was performed as described in "Müller, G. et al., (2000) Mol. Cell. Biol. 20: 4708-4723". Lipolysis was determined as release of glycerol or fluorescent NBD-FA from prelabeled and isoproterenol-stimulated adipocytes as described in "Müller, G. et al., (2003) Biochimie 85: 1245-1256". Gce1 was detected by photolabeling of solubilized plasma membranes or hc/IcDIGs (10-50 µg protein) with 8-N3-[^32P]cAMP and subsequent phosphorimaging as described in "Müller, G. et al., (1994) Biochemistry 33: 12149-12159". 5'-Nuc, aP and AChE activities were measured according to "Eliakim, R. et al., (1990) Biochim. Biophys. Acta 1355: 293-302". Protein was determined using the BCA protein determination kit from Pierce (Rockford, IL) and BSA as calibration standard. SDS-PAGE was performed using precast gels (Novex, San Diego, CA; 10 % Bis-Tris resolving gel, morpholinopropanesulfonic acid-SDS running buffer). Lumiimages were evaluated on a Lumilmager using Lumilmager software (Roche Diagnostics). Phosphor- and fluorescence images were processed and quantified using the Storm 860 Phosphorlmager system (Molecular Dynamics, Gelsenkirchen, Germany). Figures were constructed using the Adobe Photoshop software (Adobe Systems, Mountain View, CA).
Fig. 8: Effect of GPI-2350 on the glimepiride/insulin-induced metabolic activity. Isolated rat adipocytes were treated (5 min, 37°C) without or with GPI-2350 (Panel A, 50 µM; Panel B, increasing conc.; Panel C, 5 µM, 50 µM) and then incubated (15 min, 37°C) in the absence or presence of insulin (Ins, 10 nM) or glimepiride (Gli, 20 µM or increasing conc.) as indicated. The adipocytes were then assayed for glucose transport and isoproterenol-induced lipolysis. The activity is given relative to the absence of GPI-2350 in the control reaction (Panels A, basal) or in the insulin- and glimepiride-stimulated state (Panels B and C, set at 100). Means ± SD of at least 5 independent cell incubations with activity measurements in triplicate each are given.

[3] = target: T1, bovine AChE (Bos taurus, UniProt P23795); test: selectivity: AChE activity; format: biochemical; conditions: 50 µM
T1 construct: solubilized and partially purified bovine erythrocyte AChE; from tissue; host or cells: bovine erythrocytes
T1 sequence (P23795 other isoform, or with tags, fused parts or gaps): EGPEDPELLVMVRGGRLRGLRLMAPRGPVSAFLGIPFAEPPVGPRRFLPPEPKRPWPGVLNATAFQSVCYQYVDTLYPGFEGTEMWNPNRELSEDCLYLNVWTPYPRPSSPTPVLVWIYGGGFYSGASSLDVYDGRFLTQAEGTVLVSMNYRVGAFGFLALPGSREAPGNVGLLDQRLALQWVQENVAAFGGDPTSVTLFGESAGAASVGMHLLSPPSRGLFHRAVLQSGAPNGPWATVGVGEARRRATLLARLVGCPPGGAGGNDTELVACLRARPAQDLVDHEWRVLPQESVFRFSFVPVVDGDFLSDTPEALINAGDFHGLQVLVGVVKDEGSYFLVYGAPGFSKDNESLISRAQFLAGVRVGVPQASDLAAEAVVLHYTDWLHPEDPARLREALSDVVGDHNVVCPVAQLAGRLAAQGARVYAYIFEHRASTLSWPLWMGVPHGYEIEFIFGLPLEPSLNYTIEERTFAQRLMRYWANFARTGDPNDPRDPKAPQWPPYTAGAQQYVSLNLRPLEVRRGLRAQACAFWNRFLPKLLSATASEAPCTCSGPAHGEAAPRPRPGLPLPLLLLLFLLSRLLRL
Method: as §1
Fig. 3: Selectivity of GPI-2350. […]

[4] = tested on: caveolin-1; test: dissociation of signaling proteins from caveolin (caveolin-1 immunoprecipitates); format: cell-based, rat
Method: Solubilized DIGs (see above, 5-20 µg protein) were precleared by incubation with protein A/G-Sepharose and subsequent centrifugation (10,000xg, 5 min). The supernatant was incubated with anti-caveolin-1 antibodies (1:1000) preadsorbed on protein A/G-Sepharose in 1 ml of 10 mM Tris/HCl (pH 7.4), 150 mM NaCl, 1 % TX-100 for 1 h at 4°C. The immune complexes were washed twice with the same buffer and then twice with buffer lacking TX-1 00 and finally subjected to SDS-PAGE performed in the absence of β-mercaptoethanol. The recovery of immunoprecipitated caveolin was normalized by homologous immunoblotting with anti-caveolin antibodies of the same blot following stripping of the membrane.
Polypeptides separated by SDS-PAGE were transferred to polyvinylidene difluoride membranes using the semidry procedure as described in "Müller, G. et al., (2001) Mol. Cell. Biol. 21: 4553-4567". Washed membranes were incubated anti-caveolin-1 (1:2000), anti-pp59^Lyn (1:1250), anti-aP (1:500), anti-5'-Nuc (1:750) and anti-IRS-1 (1:2000) antibodies for 4 h at 15°C. Washed membranes were incubated with horseradish peroxidase-coupled secondary goat anti-mouse (1:2000) or goat anti-rabbit IgG (1:4000) antibodies. Labeled proteins were visualized by enhanced chemiluminescence.
Of signaling proteins from caveolin. […]

[5] = relative to amphiphilic version in PM of basal adipocytes (100)
[6] = relative to amphiphilic version in hcDIGs of basal adipocytes (100)

Compound: CCCCCCCCCCCCP1(=O)O[C@@H]2[C@H](O)[C@@H](O)[C@H](O)[C@@H](O)[C@@H]2O1 (mixture of isomers) [GPI-2350, myo-inositol-1,2-cyclo-dodecylphosphonic acid]
- 5'-Nuc hydroph. PM [1, 5]: 3±2 arb. units
- Gce1 hydroph. PM [1, 5]: 6±3 arb. units
- aP hydroph. PM [1, 5]: 4±3 arb. units
- 5'-Nuc amphiph IcDIGs [1, 6]: 15±6 arb. units
- 5'-Nuc amphiph hcDIGs [1, 6]: 112±19 arb. units
- 5'-Nuc hydroph. IcDIGs [1, 6]: 3±1 arb. units
- 5'-Nuc hydroph. hcDIGs [1, 6]: 7±3 arb. units
- Gce1 amphiph IcDIGs [1, 6]: 28±6 arb. units
- Gce1 amphiph hcDIGs [1, 6]: 109±10 arb. units
- Gce1 hydroph. IcDIGs [1, 6]: 14±7 arb. units
- Gce1 hydroph. hcDIGs [1, 6]: 21±7 arb. units
- aP amphiph IcDIGs [1, 6]: 19±13 arb. units
- aP amphiph hcDIGs [1, 6]: 117±11 arb. units
- effect on inhibition of lipolysis in response to glimepiride ([2]; 50 µM): almost complete blockade; also recorded: lower than control values
- IC50 ([2]; Rattus norvegicus, Adipocyte): 2 to 5 µM
- inhibition at 50 µM ([2]; Rattus norvegicus, Adipocyte, 50 µM, insulin 10 nM, read-out: reduction of insulin inhibition of isoproterenol-induced lipolysis): ≤ 33%
- effect on AChE activity [3]: not significantly affected
- effect on induced dissociation of pp59^Lyn and Gce1 from caveolin ([4]; 50 µM, Fig. 6 Panel A): almost complete blockade; also recorded: completely abrogated
- IC50 ([4]; abrogation of insulin- and glimepiride-induced losses, Fig. 6 Panel B): 5 to 10 µM
